These results are taken from ChEMBL document CHEMBL1201862, “PubChem BioAssay data set” (2004).

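48-hour exposure; five concentrations; linearly interpolated endpoints. Here, GI50 denotes the concentration required for 50% inhibition of growth.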 Activity calls are given as the source filed them. No stated cut-off is given here; in the data, active = GI50 up to about 1.1 µM and inactive = higher. Where only a bound is given, the exact number is not on record here.

Among the test systems are SN12C; MCF7; COLO 205; PC-3; OVCAR-4; A549; SR; ACHN; KM12; OVCAR-5; RPMI-8226; CAKI-1; SNB-19; OVCAR-3; EKVX; HT-29; SW-620; Malme-3M; DMS-114; DLD-1.
Holding throughout (experiment): NCI-60 cell line screen, 48 h

Regarding `COc1nc2ccc(COc3ccc(C(=O)NC(CCC(=O)O)C(=O)O)cc3)cc2nc1OC` (configuration not stated), the GI50 in the assay with SN12C, in the assay on MCF7, in the assay on COLO 205, with PC-3, with OVCAR-4 and with A549 was > 10 µM (inactive) in each case. Besides, the GI50 with SR, in the assay on ACHN, with KM12, in the assay on OVCAR-5, in the assay with RPMI-8226 and with CAKI-1 was > 10 µM (inactive) throughout. Also, the GI50 in the assay with SNB-19, in the assay with OVCAR-3, in the assay with EKVX, in the assay on HT-29 and in the assay on SW-620 was > 10 µM (inactive) each time.
As for `COc1ccc(C[C@H](N)C(=O)N2C[C@@H](CO)C[C@@H](n3ccc(=O)[nH]c3=O)C2)cc1`, the GI50 in the assay with SN12C, with COLO 205, in the assay on Malme-3M, in the assay with OVCAR-4, in the assay on A549 and in the assay on SR was > 100 µM (inactive) throughout. In addition, the GI50 in the assay with ACHN, in the assay on KM12, in the assay on OVCAR-5, with RPMI-8226, with CAKI-1 and in the assay on SNB-19 was > 100 µM (inactive) each time. Further, the GI50 in the assay with OVCAR-3, in the assay on EKVX, with DMS-114, with DLD-1, with HT-29 and with SW-620 was > 100 µM (inactive) throughout.
`CC(=O)OCC1=C(C(=O)O)C(c2ccc3c(c2)OCO3)c2cc3c(cc2O1)OCO3` (configuration not stated): the GI50 in the assay on SN12C, in the assay on COLO 205, in the assay with Malme-3M, with OVCAR-4, in the assay with A549 and in the assay with ACHN was > 100 µM (inactive) throughout. Moreover, the GI50 in the assay with RPMI-8226, with CAKI-1, with SNB-19, in the assay with OVCAR-3, with EKVX and in the assay with DMS-114 was > 100 µM (inactive) each time. Besides, the GI50 in the assay with DLD-1, with HT-29 and in the assay with SW-620 was > 100 µM (inactive) in each case.
On to `CO/C(=N\N=C(/C)C(F)(F)F)c1ccncc1`, for which the GI50 in the assay on SN12C is > 100 µM (inactive); in the assay on MCF7 it was > 100 µM (inactive); in the assay with COLO 205, > 100 µM (inactive); with Malme-3M, > 100 µM (inactive); in the assay with PC-3, 38.7 µM (inactive); in the assay on OVCAR-4, > 100 µM (inactive). Also, the GI50 in the assay with SR, in the assay on KM12, in the assay on OVCAR-5, in the assay with RPMI-8226, in the assay on CAKI-1 and in the assay with SNB-19 was > 100 µM (inactive) each time. Further, the GI50 with OVCAR-3 and in the assay on HT-29 was > 100 µM (inactive) throughout.
For the compound `Cc1ccc(C2C(C(=O)C(C)(C)C)N2S(=O)(=O)c2ccc(C)cc2)cc1` (configuration not stated), the GI50 in the assay with SN12C is 19.8 µM (inactive); with MCF7, 23.8 µM (inactive); with COLO 205, 19.5 µM (inactive); in the assay with Malme-3M, 23.2 µM (inactive); in the assay on PC-3 it was 29.7 µM (inactive); in the assay with OVCAR-4, 30.1 µM (inactive). The GI50 with A549 is 40.3 µM (inactive); in the assay with KM12, 34.5 µM (inactive); in the assay on OVCAR-5, 21.3 µM (inactive); in the assay on RPMI-8226 it was 18.9 µM (inactive); in the assay on CAKI-1 it was 26.4 µM (inactive); in the assay with SNB-19, 22.5 µM (inactive). Further, the GI50 with OVCAR-3 is 26.5 µM (inactive); in the assay with EKVX it was 15.7 µM (inactive); with HT-29 it was 24.3 µM (inactive); with SW-620, 26.8 µM (inactive).
As to `COc1ccc(C2OC[C@H]3O[C@@H](OCc4ccccc4)[C@H](O)[C@@H](O)[C@@H]3O2)cc1` (some centres not stated), the GI50 in the assay on SN12C is > 100 µM (inactive); in the assay on MCF7, > 100 µM (inactive); in the assay on COLO 205, > 100 µM (inactive); in the assay on PC-3, 99.8 µM (inactive); with OVCAR-4, 84.5 µM (inactive); with A549 it was > 100 µM (inactive). Further, the GI50 with SR is 67.9 µM (inactive); with ACHN, > 100 µM (inactive); in the assay with OVCAR-5 it was > 100 µM (inactive); in the assay with RPMI-8226 it was 76.9 µM (inactive); in the assay with CAKI-1, > 100 µM (inactive); in the assay with SNB-19, > 100 µM (inactive). The GI50 is > 100 µM (inactive) in the assay on OVCAR-3, 68.5 µM (inactive) with EKVX, > 100 µM (inactive) with HT-29 and > 100 µM (inactive) with SW-620.
As to `CCCNC1=C(C)C(=O)C2=C(C1=O)[C@H](COC(N)=O)[C@]1(OC)[C@@H]3N[C@@H]3CN21`, the GI50 with SN12C was 2.42 µM (inactive); with MCF7, 0.0422 µM (active); in the assay with COLO 205 it was 3.94 µM (inactive); in the assay with Malme-3M it was 6.07 µM (inactive); with OVCAR-4, 6.93 µM (inactive); in the assay with A549, 0.43 µM (active). Moreover, the GI50 with KM12 is 8.85 µM (inactive); in the assay on OVCAR-5 it was 13.7 µM (inactive); in the assay with RPMI-8226 it was 7.18 µM (inactive); in the assay on CAKI-1, 4.57 µM (inactive); in the assay on SNB-19, 2.01 µM (inactive); in the assay on OVCAR-3, 11.6 µM (inactive). Moreover, the GI50 in the assay with EKVX is 4.3 µM (inactive); with DMS-114 it was 4 µM (inactive); in the assay on DLD-1 it was 5 µM (inactive); in the assay with HT-29 it was 9.31 µM (inactive); in the assay on SW-620, 3.73 µM (inactive).
With `CCCC(O)C(NC(=O)CCl)C(=O)O` (configuration not stated), the GI50 with SN12C, with MCF7, in the assay with COLO 205, with Malme-3M, with OVCAR-4 and in the assay with A549 was > 100 µM (inactive) throughout. Besides, the GI50 with KM12, in the assay with OVCAR-5, in the assay with RPMI-8226, with CAKI-1, with SNB-19 and in the assay with OVCAR-3 was > 100 µM (inactive) in each case. The GI50 in the assay with EKVX, with DMS-114, in the assay on DLD-1, in the assay with HT-29 and with SW-620 was > 100 µM (inactive) each time.
On to `CCOP(=O)(C/C=C/Cn1ncc(=O)[nH]c1=O)OCC`, for which the GI50 in the assay on SN12C, in the assay with MCF7, in the assay on COLO 205, with Malme-3M, in the assay on PC-3 and in the assay with OVCAR-4 was > 100 µM (inactive) throughout. In addition, the GI50 with A549 is > 100 µM (inactive); with SR it was > 10 µM (inactive); in the assay with ACHN it was 63.2 µM (inactive); in the assay with KM12, > 100 µM (inactive); in the assay with OVCAR-5, > 100 µM (inactive); with RPMI-8226, > 100 µM (inactive). Besides, the GI50 in the assay with CAKI-1, in the assay with SNB-19, with OVCAR-3, in the assay on EKVX, in the assay with HT-29 and in the assay with SW-620 was > 100 µM (inactive) in each case.
Turning to `CSCCC(NC(=O)C(Cc1ccccc1)NC(=O)CNC(=O)CNC(=O)C(N)Cc1ccc(O)cc1)C(=O)O` (configuration not stated), the GI50 with SN12C, in the assay with MCF7, with COLO 205, in the assay with Malme-3M, in the assay with OVCAR-4 and in the assay on A549 was > 100 µM (inactive) throughout. For the same compound, the GI50 was > 100 µM (inactive) in the assay with KM12; > 55.5 µM (inactive) in the assay on OVCAR-5; > 100 µM (inactive) in the assay on CAKI-1; > 100 µM (inactive) in the assay on SNB-19; > 100 µM (inactive) in the assay with OVCAR-3; > 100 µM (inactive) with EKVX. Further, the GI50 in the assay on DMS-114, in the assay with HT-29 and in the assay on SW-620 was > 100 µM (inactive) throughout.
On to `CN1CCOC(c2ccc(Cl)cc2)O1` (configuration not stated), for which the GI50 with SN12C, in the assay on MCF7, in the assay with COLO 205, with Malme-3M, in the assay with PC-3 and in the assay on OVCAR-4 was > 100 µM (inactive) in each case. Also, the GI50 with A549, in the assay with SR, in the assay on ACHN, in the assay with KM12, in the assay with OVCAR-5 and in the assay on CAKI-1 was > 100 µM (inactive) each time. For the same compound, the GI50 in the assay with SNB-19, in the assay on OVCAR-3, with EKVX, in the assay with HT-29 and in the assay with SW-620 was > 100 µM (inactive) in each case.
As to `CC(=O)Nc1cccc(/N=N/N(C)C)c1`, the GI50 in the assay on SN12C, in the assay with MCF7, in the assay with COLO 205, in the assay on Malme-3M, in the assay on OVCAR-4 and with A549 was > 100 µM (inactive) each time. Moreover, the GI50 with KM12, in the assay with OVCAR-5, in the assay with RPMI-8226, in the assay on CAKI-1, in the assay with SNB-19 and in the assay on OVCAR-3 was > 100 µM (inactive) each time. Besides, the GI50 is > 100 µM (inactive) with EKVX; > 100 µM (inactive) in the assay on DMS-114; > 31.6 µM (inactive) with DLD-1; > 100 µM (inactive) in the assay on HT-29; > 100 µM (inactive) in the assay on SW-620.
